The source made the active and inactive calls. How the calls were made is not given here.
Test system: rodent lifetime carcinogenesis bioassay, tumor incidence TD50
Test: carcinogenic potency in animals, long-term in vivo studies, CPDB compilation (AID 1745844)

**Q.** What does the source list for `COc1ccc(N)c(OC)c1`?
**A.** TD50 (mouse, strain B6C3F1, females, in feed, site: any site (literature study), lesion: several types, types named in the paper, dosed 103 weeks, study length 104 weeks): 986 mg/kg/day (inactive); TD50 (mouse, strain B6C3F1, females, in feed, site: liver, lesion: hepatocellular adenoma + hepatocellular carcinoma + neoplastic nodule, dosed 103 weeks, study length 104 weeks): 2790 mg/kg/day; TD50 (mouse, strain B6C3F1, females, in feed, site: lung, lesion: alveolar/bronchiolar adenoma + alveolar/bronchiolar carcinoma, dosed 103 weeks, study length 104 weeks): 50600 mg/kg/day; TD50 (mouse, strain B6C3F1, males, in feed, site: any site (literature study), lesion: several types, types named in the paper, dosed 103 weeks, study length 104 weeks): 1650 mg/kg/day (inactive); TD50 (mouse, strain B6C3F1, males, in feed, site: liver, lesion: hepatocellular adenoma + hepatocellular carcinoma + neoplastic nodule, dosed 103 weeks, study length 104 weeks): 1390 mg/kg/day; carcinogen call (rat, strain Fischer 344, females, in feed, site: any site (literature study), lesion: several types, types named in the paper, dosed 104 weeks, study length 105 weeks): negative (inactive); carcinogen call (rat, strain Fischer 344, males, in feed, site: any site (literature study), lesion: several types, types named in the paper, dosed 104 weeks, study length 105 weeks): negative (inactive)

**Q.** Which results are given for `CC(=O)OC1CC(C)OC(C)O1` (stereo not given)?
**A.** TD50 (mouse, strain B6C3F1, females, by gavage, site: any site (literature study), lesion: several types, types named in the paper, dosed 103 weeks, study length 104 weeks): 3380 mg/kg/day (inactive); TD50 (mouse, strain B6C3F1, females, by gavage, site: lung, lesion: alveolar/bronchiolar adenoma + alveolar/bronchiolar carcinoma, dosed 103 weeks, study length 104 weeks): 10400 mg/kg/day; TD50 (mouse, strain B6C3F1, males, by gavage, site: any site (literature study), lesion: several types, types named in the paper, dosed 103 weeks, study length 104 weeks): 1820 mg/kg/day; TD50 (mouse, strain B6C3F1, males, by gavage, site: forestomach, lesion: squamous-cell carcinoma + squamous-cell papilloma, dosed 103 weeks, study length 104 weeks): 1440 mg/kg/day; TD50 (mouse, strain B6C3F1, males, by gavage, site: liver, lesion: hepatocellular adenoma + hepatocellular carcinoma + neoplastic nodule, dosed 103 weeks, study length 104 weeks): 1180 mg/kg/day; TD50 (mouse, strain B6C3F1, males, by gavage, site: lung, lesion: alveolar/bronchiolar adenoma + alveolar/bronchiolar carcinoma, dosed 103 weeks, study length 104 weeks): 1450 mg/kg/day; carcinogen call (rat, strain Fischer 344, females, by gavage, site: any site (literature study), lesion: several types, types named in the paper, dosed 103 weeks, study length 104 weeks): negative (inactive); TD50 (rat, strain Fischer 344, females, by gavage, site: liver, lesion: hepatocellular adenoma + hepatocellular carcinoma + neoplastic nodule, dosed 103 weeks, study length 104 weeks): 2430 mg/kg/day; carcinogen call (rat, strain Fischer 344, males, by gavage, site: any site (literature study), lesion: several types, types named in the paper, dosed 103 weeks, study length 104 weeks): negative (inactive); TD50 (rat, strain Wistar, males, in drinking water, site: all sites, lesion: lymphosarcoma, dosed 87 weeks, study length 100 weeks): 29800 mg/kg/day; TD50 (rat, strain Wistar, males, in drinking water, site: all sites, lesion: myelogenous leukemia, dosed 87 weeks, study length 100 weeks): 6770 mg/kg/day; TD50 (rat, strain Wistar, males, in drinking water, site: any site (literature study), lesion: several types, types named in the paper, dosed 87 weeks, study length 100 weeks): 419 mg/kg/day; TD50 (rat, strain Wistar, males, in drinking water, site: kidney, lesion: papillary transitional-cell carcinoma, dosed 87 weeks, study length 100 weeks): 6770 mg/kg/day; TD50 (rat, strain Wistar, males, in drinking water, site: liver, lesion: hepatoma, dosed 87 weeks, study length 100 weeks): 716 mg/kg/day; TD50 (rat, strain Wistar, males, in drinking water, site: skin, lesion: epidermoid carcinoma, dosed 87 weeks, study length 100 weeks): 6770 mg/kg/day; TD50 (rat, strain Wistar, males, in drinking water, site: subcutaneous tissue, lesion: fibrosarcoma, dosed 87 weeks, study length 100 weeks): 6770 mg/kg/day

**Q.** What does the source list for `O=[N+]([O-])c1ccc2ncccc2c1`?
**A.** carcinogen call (rat, strain Fischer 344, females, in feed, site: liver, lesion: hyperplastic nodule, dosed 104 weeks, study length 104 weeks): negative (inactive); TD50 (rat, strain Fischer 344, males, in feed, site: liver, lesion: hyperplastic nodule, dosed 104 weeks, study length 104 weeks): 267 mg/kg/day (inactive)

**Q.** Which carcinogen call (mouse, strain B6C3F1, females, in feed, site: any site (literature study), lesion: several types, types named in the paper, dosed 104 weeks, study length 104 weeks) does the source give for `Nc1ncc([N+](=O)[O-])s1` here?
**A.** negative (inactive)

**Q.** And the TD50 (mouse, strain B6C3F1, females, in feed, site: liver, lesion: hepatocellular adenoma + hepatocellular carcinoma + neoplastic nodule, dosed 104 weeks, study length 104 weeks)?
**A.** 109 mg/kg/day

**Q.** What about the TD50 (mouse, strain B6C3F1, females, in feed, site: lung, lesion: alveolar/bronchiolar adenoma + alveolar/bronchiolar carcinoma, dosed 104 weeks, study length 104 weeks) of the same compound?
**A.** 63.5 mg/kg/day

**Q.** What about the carcinogen call (mouse, strain B6C3F1, males, in feed, site: any site (literature study), lesion: several types, types named in the paper, dosed 104 weeks, study length 104 weeks) of the same compound?
**A.** negative (inactive)

**Q.** What about the TD50 (rat, strain Fischer 344, females, in feed, site: any site (literature study), lesion: several types, types named in the paper, dosed 110 weeks, study length 111 weeks) of the same compound?
**A.** 326 mg/kg/day

**Q.** And the TD50 (rat, strain Fischer 344, females, in feed, site: uterus, lesion: endometrial stromal polyp, dosed 110 weeks, study length 111 weeks)?
**A.** 57.2 mg/kg/day (inactive)

**Q.** What about the TD50 (rat, strain Fischer 344, males, in feed, site: all sites + multiple organs, lesion: lymphocytic leukemia + malignant lymphoma + undifferentiated leukemia, dosed 110 weeks, study length 111 weeks) of the same compound?
**A.** 445 mg/kg/day

**Q.** What about the TD50 (rat, strain Fischer 344, males, in feed, site: all sites, lesion: leukemia + lymphoma, dosed 110 weeks, study length 111 weeks) of the same compound?
**A.** 27.6 mg/kg/day

**Q.** What about the TD50 (rat, strain Fischer 344, males, in feed, site: any site (literature study), lesion: several types, types named in the paper, dosed 110 weeks, study length 111 weeks) of the same compound?
**A.** 32.3 mg/kg/day

**Q.** What about the TD50 (rat, strain Fischer 344, males, in feed, site: liver, lesion: hepatocellular adenoma + hepatocellular carcinoma + neoplastic nodule, dosed 110 weeks, study length 111 weeks) of the same compound?
**A.** 318 mg/kg/day

**Q.** And the TD50 (rat, strain Fischer 344, males, in feed, site: multiple organs, lesion: granulocytic leukemia, dosed 110 weeks, study length 111 weeks)?
**A.** 90.2 mg/kg/day

**Q.** And the TD50 (rat, strain Sprague-Dawley, females, in feed, site: any site (literature study), lesion: several types, types named in the paper, dosed 46 weeks, study length 66 weeks)?
**A.** 32.5 mg/kg/day

**Q.** What about the TD50 (rat, strain Sprague-Dawley, females, in feed, site: kidney/pelvis, lesion: transitional-cell carcinoma, dosed 46 weeks, study length 66 weeks) of the same compound?
**A.** 157 mg/kg/day

**Q.** And the TD50 (rat, strain Sprague-Dawley, females, in feed, site: lung, lesion: alveolar-cell carcinoma, dosed 46 weeks, study length 66 weeks)?
**A.** 157 mg/kg/day

**Q.** What about the TD50 (rat, strain Sprague-Dawley, females, in feed, site: mammary gland, lesion: several types, types named in the paper, dosed 46 weeks, study length 66 weeks) of the same compound?
**A.** 44.6 mg/kg/day

Source: PubChem BioAssay AID1745844 (Carcinogenic Potency Database (CPDB), 2022)
